Measurements: patent EP0551518A1, “QUINOLINECARBOXYLIC ACID DERIVATIVE” (NIPPON SHINYAKU COMPANY, LIMITED, priority 1990, dated 1992)
In brackets after ≈: the same amount, converted by molar mass.

Key:
Assay type in all cases: cell-based
S. aureus OWPH 2127 = assay: Determination of minimal inhibitory concentration (MIC)-2, new quinolone-resistant MRSA; details: Staphylococcus aureus, OWPH2127, 18 h; S. aureus OWPH 2127, new quinolone-resistant and methicillin-resistant; same procedure as Test Example 1
Experimental: (§1) Method: MIC was determined by the agar plate dilution method in accordance with the standard protocol of Japan Society of Chemotherapy (cf. Chemotherapy 29 (1), 76-79, 1981). Each bacterial culture obtained by 18-hour incubation in a sensitivity assay bouillon medium at 37°C was diluted to 10⁶ CFU/ml with the same medium. Using a microplanter, a sensitivity assay agar medium containing the test drug was inoculated with the diluted culture and incubated at 37°C for 18 hours. The MIC value was then determined. As reference drugs, 6-fluoro-1-methyl-4-oxo-7-(1-piperazinyl)-4H-[1,3]thiazeto[3,2-a]quinoline-3-carboxylic acid (referred to as control), ciprofloxacin (CPFX) and ofloxacin (OFLX) were used.
(§2) The antibacterial activity of the compounds obtained in Example 4, Example 25 and Example 26 of the present invention was assayed by the same procedure as in Test Example 1. As reference drugs, 6-fluoro-1-methyl-4-oxo-7-(1-piperazinyl)-4H-[1,3]-thiazeto[3,2-a]quinoline-3-carboxylic acid (referred to as Control), norfloxacin (NFLX) and tosufloxacin (TFLX) were used.

S. aureus Sh 2 = assay: as above; details: Staphylococcus aureus, SH2, 18 h; S. aureus Sh 2, new quinolone-resistant and methicillin-resistant; same procedure as Test Example 1
Experimental: as §1, §2

S. aureus Sh 44 = assay: as above; details: Staphylococcus aureus, SH44, 18 h; S. aureus Sh 44, new quinolone-resistant and methicillin-resistant; same procedure as Test Example 1
Experimental: as §1, §2

S. aureus OWPH 1793 = assay: as above; details: Staphylococcus aureus, OWPH1793, 18 h; S. aureus OWPH 1793, new quinolone-resistant and methicillin-resistant; same procedure as Test Example 1
Experimental: as §1, §2

S. aureus OWPH 1786 = assay: as above; details: Staphylococcus aureus, OWPH1786, 18 h; S. aureus OWPH 1786, new quinolone-resistant and methicillin-resistant; same procedure as Test Example 1
Experimental: as §1, §2

S. aureus OWPH 1770 = assay: as above; details: Staphylococcus aureus, OWPH1770, 18 h; S. aureus OWPH 1770, new quinolone-resistant and methicillin-resistant; same procedure as Test Example 1
Experimental: as §1, §2

S. aureus OWPH 1799 = assay: as above; details: Staphylococcus aureus, OWPH1799, 18 h; S. aureus OWPH 1799, new quinolone-resistant and methicillin-resistant; same procedure as Test Example 1
Experimental: as §1, §2

S. aureus Sh 47 = assay: as above; details: Staphylococcus aureus, SH47, 18 h; S. aureus Sh 47, new quinolone-resistant and methicillin-resistant; same procedure as Test Example 1
Experimental: as §1, §2

S. aureus OWPH 1792 = assay: as above; details: Staphylococcus aureus, OWPH1792, 18 h; S. aureus OWPH 1792, new quinolone-resistant and methicillin-resistant; same procedure as Test Example 1
Experimental: as §1, §2

S. aureus OWPH 2128 = assay: as above; details: Staphylococcus aureus, OWPH2128, 18 h; S. aureus OWPH 2128, new quinolone-resistant and methicillin-resistant; same procedure as Test Example 1
Experimental: as §1, §2

S. aureus OWPH 1773 = assay: as above; details: Staphylococcus aureus, OWPH1773, 18 h; S. aureus OWPH 1773, new quinolone-resistant and methicillin-resistant; same procedure as Test Example 1
Experimental: as §1, §2

S. aureus OWPH 2124 = assay: as above; details: Staphylococcus aureus, OWPH2124, 18 h; S. aureus OWPH 2124, new quinolone-resistant and methicillin-resistant; same procedure as Test Example 1
Experimental: as §1, §2

S. aureus Sh 54 = assay: as above; details: Staphylococcus aureus, SH54, 18 h; S. aureus Sh 54, new quinolone-resistant and methicillin-resistant; same procedure as Test Example 1
Experimental: as §1, §2

S. aureus OWPH 1796 = assay: as above; details: Staphylococcus aureus, OWPH1796, 18 h; S. aureus OWPH 1796, new quinolone-resistant and methicillin-resistant; same procedure as Test Example 1
Experimental: as §1, §2

S. aureus OWPH 2133 = assay: as above; details: Staphylococcus aureus, OWPH2133, 18 h; S. aureus OWPH 2133, new quinolone-resistant and methicillin-resistant; same procedure as Test Example 1
Experimental: as §1, §2

S. aureus OWPH 2134 = assay: as above; details: Staphylococcus aureus, OWPH2134, 18 h; S. aureus OWPH 2134, new quinolone-resistant and methicillin-resistant; same procedure as Test Example 1
Experimental: as §1, §2

S. aureus Sh 8 = assay: as above; details: Staphylococcus aureus, SH8, 18 h; S. aureus Sh 8, new quinolone-resistant and methicillin-resistant; same procedure as Test Example 1
Experimental: as §1, §2

[1] = test system: Pseudomonas aeruginosa IFO 3445; assay: Determination of minimal inhibitory concentration of growth (MIC)-1, agar plate dilution method; details: Pseudomonas aeruginosa, IFO3445, 18 h, Pseudomonas aeruginosa IFO 3445; agar plate dilution, 10⁶ CFU/ml, 37°C, 18 hours; read-out: MIC
Experimental: as §1

[2] = test system: Enterococcus faecalis ATCC 29212; assay: as above; details: ATCC29212; Enterococcus faecalis ATCC 29212; agar plate dilution, 10⁶ CFU/ml, 37°C, 18 hours; read-out: MIC
Experimental: as §1

[3] = test system: Staphylococcus epider-midis IFO 12993; assay: as above; details: Staphylococcus, IFO12993, 18 h, Staphylococcus epider-midis IFO 12993; agar plate dilution, 10⁶ CFU/ml, 37°C, 18 hours; read-out: MIC
Experimental: as §1

Proteus vulgaris HX-19 = assay: as above; details: Proteus vulgaris, HX19, 18 h, Proteus vulgaris HX-19; agar plate dilution, 10⁶ CFU/ml, 37°C, 18 hours; read-out: MIC
Experimental: as §1

[4] = test system: Bacillus subtilis ATCC 6633; assay: as above; details: ATCC6633; Bacillus subtilis ATCC 6633; agar plate dilution, 10⁶ CFU/ml, 37°C, 18 hours; read-out: MIC
Experimental: as §1

[5] = test system: Staphylococcus aureus 209-P JC-1; assay: as above; details: Staphylococcus aureus, 209P, 18 h, Staphylococcus aureus 209-P JC-1; agar plate dilution, 10⁶ CFU/ml, 37°C, 18 hours; read-out: MIC
Experimental: as §1

[6] = test system: Staphylococcus aureus OWPH 1984 (MRSA); assay: as above; details: Staphylococcus aureus, MRSA, 18 h, Staphylococcus aureus OWPH 1984 (MRSA); agar plate dilution, 10⁶ CFU/ml, 37°C, 18 hours; read-out: MIC
Experimental: as §1

[7] = test system: Micrococcus luteus ATCC 9341; assay: as above; details: ATCC9341; Micrococcus luteus ATCC 9341; agar plate dilution, 10⁶ CFU/ml, 37°C, 18 hours; read-out: MIC
Experimental: as §1

Escherichia coli KC-14 = assay: as above; details: Escherichia coli, KC14, 18 h, 10⁶ CFU/ml, 37°C, read-out: MIC
Experimental: as §1

[8] = test system: Staphylococcus aureus OWPH 2125 (MRSA, PCA^r ); assay: as above; details: Staphylococcus aureus, MRSA, 18 h, Staphylococcus aureus OWPH 2125 (MRSA, PCA^r); agar plate dilution, 10⁶ CFU/ml, 37°C, 18 hours; read-out: MIC
Experimental: as §1

[9] = test system: Staphylococcus aureus Smith; assay: as above; details: Staphylococcus aureus Smith; agar plate dilution, 10⁶ CFU/ml, 37°C, 18 hours; read-out: MIC
Experimental: as §1

SMILES	MIC (S. aureus OWPH 2127) [µg/mL]	MIC (S. aureus Sh 2) [µg/mL]	MIC (S. aureus Sh 44) [µg/mL]	MIC (S. aureus OWPH 1793) [µg/mL]	MIC (S. aureus OWPH 1786) [µg/mL]	MIC (S. aureus OWPH 1770) [µg/mL]	MIC (S. aureus OWPH 1799) [µg/mL]	MIC (S. aureus Sh 47) [µg/mL]	MIC (S. aureus OWPH 1792) [µg/mL]	MIC (S. aureus OWPH 2128) [µg/mL]	MIC (S. aureus OWPH 1773) [µg/mL]	MIC (S. aureus OWPH 2124) [µg/mL]	MIC (S. aureus Sh 54) [µg/mL]	MIC (S. aureus OWPH 1796) [µg/mL]	MIC (S. aureus OWPH 2133) [µg/mL]	MIC (S. aureus OWPH 2134) [µg/mL]	MIC (S. aureus Sh 8) [µg/mL]	MIC [1] [µg/mL]	MIC [2] [µg/mL]	MIC [3] [µg/mL]	other results
CC1Sc2c(C(=O)O)c(=O)c3cc(F)c(-c4ccc(N)cc4)c(F)c3n21 (centres unmarked) [Example 25, 7-(4-Aminophenyl)-6,8-difluoro-1-methyl-4-oxo-4H-[1,3]thiazeto[3,2-a]quinoline-3-carboxylic acid]	0.39 (≈ 1.04 µM)	0.39 (≈ 1.04 µM)	0.2 (≈ 0.534 µM)	0.39 (≈ 1.04 µM)	0.39 (≈ 1.04 µM)	0.1 (≈ 0.267 µM)	0.39 (≈ 1.04 µM)	0.39 (≈ 1.04 µM)	0.39 (≈ 1.04 µM)	0.39 (≈ 1.04 µM)	0.2 (≈ 0.534 µM)	0.39 (≈ 1.04 µM)	0.2 (≈ 0.534 µM)	0.2 (≈ 0.534 µM)	0.39 (≈ 1.04 µM)	0.2 (≈ 0.534 µM)	0.2 (≈ 0.534 µM)	0.2 (≈ 0.534 µM)	0.05 (≈ 0.134 µM)	0.006 (≈ 0.016 µM)	MIC (Proteus vulgaris HX-19): 0.025 µg/mL (≈ 0.0668 µM); MIC [4]: ≤ 0.006 µg/mL; MIC [5]: ≤ 0.006 µg/mL; MIC [6]: 0.012 µg/mL (≈ 0.0321 µM); MIC [7]: 0.2 µg/mL (≈ 0.534 µM); MIC (Escherichia coli KC-14): 0.05 µg/mL (≈ 0.134 µM); MIC [8]: 0.012 µg/mL (≈ 0.0321 µM); MIC [9]: ≤ 0.006 µg/mL
COc1c(-c2ccccc2)c(F)cc2c(=O)c(C(=O)O)c3n(c12)C(C)S3 (centres unmarked) [Example 26, 6-Fluoro-8-methoxy-1-methyl-4-oxo-7-phenyl-4H-[1,3]thiazeto[3,2-a]quinoline-3-carboxylic acid]	1.56 (≈ 4.2 µM)	1.56 (≈ 4.2 µM)	0.78 (≈ 2.1 µM)	1.56 (≈ 4.2 µM)	0.78 (≈ 2.1 µM)	0.39 (≈ 1.05 µM)	1.56 (≈ 4.2 µM)	0.78 (≈ 2.1 µM)	1.56 (≈ 4.2 µM)	1.56 (≈ 4.2 µM)	0.39 (≈ 1.05 µM)	0.39 (≈ 1.05 µM)	0.78 (≈ 2.1 µM)	0.78 (≈ 2.1 µM)	1.56 (≈ 4.2 µM)	0.78 (≈ 2.1 µM)	0.78 (≈ 2.1 µM)	3.13 (≈ 8.43 µM)	0.2 (≈ 0.539 µM)	0.025 (≈ 0.0673 µM)	MIC (Proteus vulgaris HX-19): 0.39 µg/mL (≈ 1.05 µM); MIC [4]: ≤ 0.006 µg/mL; MIC [5]: 0.025 µg/mL (≈ 0.0673 µM); MIC [6]: 0.025 µg/mL (≈ 0.0673 µM); MIC [7]: 0.78 µg/mL (≈ 2.1 µM); MIC (Escherichia coli KC-14): 0.78 µg/mL (≈ 2.1 µM); MIC [8]: 0.1 µg/mL (≈ 0.269 µM); MIC [9]: 0.012 µg/mL (≈ 0.0323 µM)
